Experiments:
NAD(P)H oxidase = NAD(P)H oxidase ROS/H2O2 production control test without mitochondria; assay type: biochemical; conditions: no mitochondria; NAD(P)H oxidase + NADH; results not shown
[1] = test system: normoxic, chronic hypoxic and monocrotaline-treated rats; assay: Pulmonary hypertension rat models (chronic hypoxia, monocrotaline); assay type: in vivo
Method: Male Wistar rats (300-400 g) were separated into 3 groups and used 4 weeks later: • the first group (control or normoxic rats—N rats) was housed in ambient room air; • the second group (chronic hypoxic rats—CH rats) was exposed to chronic hypoxia for 3 weeks in a hypobaric chamber (50 kPa), and • the third group (MCT rats) was injected with a single intraperitoneal dose of monocrotaline at a dose of 60 mg/kg. MCT (Sigma, St Quentin Fallavier, France) was dissolved in an equal volume of HCl ([…]) and NaOH ([…]).
In each group, some animals were treated with AOL (Sulfarlem, EG Labo Eurogenerics. Crushed tablets mixed with food, fed ad libitum) and some other animals were untreated. Eaten food was weighed every day to estimate the AOL dose administered. 10 mg/kg/day was thus administered during the 3 weeks of experiment for the second and third groups.
Pulmonary hypertension was assessed by measuring both the mean pulmonary arterial pressure (mPAP) and right ventricle hypertrophy. To measure PAP, N, CH and MCT rats were anesthetized with pentobarbital sodium (Centravet) by intraperitoneal injection (60 mg/kg) and mPAP was measured, in closed-chest rats, through a catheter inserted in the right jugular vein, then through the right atria and the right ventricle into the pulmonary artery, and attached to a Baxter Uniflow gauge pressure transducer.
Right ventricle hypertrophy was estimated by the ratio of right ventricle (RV) to left ventricle plus septum (LV+S) weight (Fulton index).
Pulmonary arteries (PA) remodeling was assessed by measuring the percentage of the PA medial thickness from sections of paraffin-embedded lung. Lung sections were first stained with hematoxylin and eosin (VWR) according to common histological procedure.

[2] = test system: other mitochondrial sites of ROS production (site IIIQO, site IF); assay: Mitochondrial ROS/H2O2 production (Amplex Red/HRP) after rotenone, antimycin A, myxothiazol; assay type: biochemical, rat; conditions: AOL 5 to 80 μM
Method: (§1) Rates of ROS/H2O2 production from heart mitochondria were assessed through the oxidation of the colorless, non-fluorescent indicator Amplex Red in the presence of exogenous horseradish peroxidase (HRP, EC 1.11.1.7, Sigma). H2O2 reacts with Amplex Red in a 1:1 stoichiometry, yielding the fluorescent compound resorufin (excitation: 560 nm; emission: 585 nm) which is stable once formed. Fluorescence was measured continuously with a spectro-fluorometer equipped with temperature control and stirring (SAFAS Xenius, Monaco). Isolated mitochondria (0.1 mg/mL) were incubated in the same experimental buffer than previously, supplemented with 15 μM Amplex Red and 10 μg/mL HRP. Glutamate (5 mM)/malate (2.5 mM) together with succinate (5 mM) were used as complex I and complex II substrates, respectively. Experiments were conducted under non-phosphorylating conditions in the presence of 15 μM atractyloside, i.e. under state IV conditions where mitochondrial membrane […]. […]
(§2) FIG. 3 illustrates the effect of the presence of increasing concentrations of AOL (from 5 to 80 μM) on ROS/H2O2 production measured under the different conditions defined in FIG. 2. […]

[3] = test system: site IQ of complex I of the mitochondrial respiratory chain; assay: Mitochondrial ROS/H2O2 production (Amplex Red/HRP), no complex inhibitor, ATR only; assay type: biochemical, rat; conditions: glutamate+malate+succinate, ATR (state 4); AOL 5 to 80 μM
Method: as §1, §2

[4] = stated as known; cited from earlier work
[5] = test system: outer nuclear layer (ONL) of the retina; assay: Progressive light-induced retinal degeneration, retina histology; assay type: in vivo, rat; conditions: 6 mg/kg/day, three times a day, 7 days
Method: Rats bred under cyclic low-intensity lighting were transferred to cyclic high-intensity lighting for one week and divided into 3 groups (non-treated animals, vehicle-treated animals and AOL-treated animals). Treated animals received injections of vehicle or AOL at a dose of 6 mg/kg/day, three times a day for the 7 days of the transfer (30 minutes before light-ON; at 01.00 pm; at 09.00 pm). After one week, animals were transferred in the dark (D0).
A control group (“untransferred”) was not transferred to cyclic high-intensity lighting but received the same treatment as described above: injections of vehicle or AOL three times a day for 7 days, followed by a transfer in the dark (D0).
Animals were then sacrificed for histological analysis.

COc1ccc(-c2cc(=S)ss2)cc1 [AOL, 5-(4-methoxyphenyl)-3H-1,2-dithiole-3-thione]
ROS/H2O2 production by NAD(P)H oxidase (NAD(P)H oxidase): does not inhibit
reduction of pulmonary arteries remodeling (printed: pulmonary arteries diameter) ([1]; CH rats, oral 10 mg/kg/day): ~30%
mean pulmonary arterial pressure (mPAP) ([1]; CH rats, oral 10 mg/kg/day, 3 weeks): even more significantly
mean pulmonary arterial pressure (mPAP) ([1]; MCT rats, oral 10 mg/kg/day, 3 weeks): decreased
mean pulmonary arterial pressure (mPAP) ([1]; normoxic (N) rats): no significant effect
Fulton index (right ventricular hypertrophy) ([1]; oral 10 mg/kg/day): no effect
ROS/H2O2 production under the other conditions [2]: no statistical differences were observed
decrease of ROS/H2O2 production measured in the absence of inhibitor [3]: approximately 80%
bioavailability [4]: very short
ONL thickness ([5]; transferred to cyclic high-intensity lighting): significant increase
ONL thickness ([5]; untransferred control group): no effect

From patent US11318113B2, “Compounds for the treatment of diseases linked to mitochondrial reactive oxygen species (ROS) production” (OP2 DRUGS, priority 2015, dated 2022)
